# From patent publication US8148426B2, “Bis(thio-hydrazide amides) for increasing Hsp70 expression” (Synta Pharmaceuticals Corp., priority 2004, dated 2012)
# Where “and” joins values, the source holds several entries; their conditions need not be identical. Equal values may be shown once. Read-outs that look alike come from different tables or passages of the source.
# How the values were obtained:
# [1] = in vivo
# Procedure: The compounds were prepared in two formulations: Formulation A contained 10% DMSO, and 18% Cremophor RH40 in water; Formulation B contained ethanol:Cremophor EL in a 1:1 ratio.
# Blood samples were taken at 30 min, 1, 2, and 4 hr after injection. Brain tissue samples were taken after blood collected at 30 min, where one mouse from each group was selected and its brain was removed for analysis.
# Blood samples were combined with 3-5 mg solid DTT, after which the sample was vortexed and centrifuged at 6,000 rpm×10 min. A 50 μL aliqot of plasma was taken, followed by the addition of 50 μL 1% DTT and 150 μL CH3CN (0.1% TFA). The mixture was vortexed and centrifuged at 10,000 rpm×5 min. The 150 μL supernatant was diluted with 150 μL water. A weighed tissue sample was homogenized in PBS (1:1), then combined with 1% DTT (1:1), followed by the addition of CH3CN containing 0.1% TFA (3:1). The mixture was vortexed and centrifuged at 10,000 rpm×5 min. The 150 μL supernatant was diluted with 150 μL water. 100 μL prepared samples were subjected to HPLC, using 5-95% CH3CN (0.1% trifluoroacetic acid) as the eluent.
# [2] = Phase 1/2 study, safety (Example 12); type: in vivo, human
# Procedure: Phase 1 (safety/PK/MTD (maximum tolerated dose) was followed by a Phase 2 randomized two arm portion. Two dose levels were evaluated in Phase 1.
# Dosing was IV q 3 weeks for up to 6 cycles in the absence of dose-limiting toxicity or progression. […] The phase 2 primary endpoint is time to progression, with secondary endpoints of response rate, survival, and quality of life. Study pharmacodynamic parameters include NK cell activity and Hsp70 level.
# [3] = tested on: K562/eGFP; test: NK cell cytotoxic activity of patients' PBMC (Example 12); type: in vivo, human
# From the text: The following procedure can be employed to assay NK cell activity in a subject. The procedure is adapted from Kantakamalakul W, Jaroenpool J, Pattanapanyasat K. A novel enhanced green fluorescent protein (EGFP)-K562 flow cytometric method for measuring natural killer (NK) cell cytotoxic activity. J Immunol Methods. 2003 Jan. 15; 272:189-197, the entire teachings of which are incorporated herein by reference.
# K562 cells were transduced with retroviral vector which encode green fluorescent protein (eGFP). Stable cell line was selected with antibiotic, G418.
# The subject's peripheral blood mononuclear cells (PBMCs) were prepared by clinical study sites and received in BD Vacutainer Cell Preparation Tube with sodium heparin (Product Number: 362753, Becton Dickinson, Franklin Lakes, N.J.).
# Effector cells alone and target cells alone were used as controls. All tubes were incubated at 37° C. with 5% CO2 for about 3.5 hr. Ten microliters of propidium iodide (PI) at a concentration of 1 mg/mL was added t each tube including effector and target control tubes and then incubated at room temperature for 15 min.
# Cytotoxic activity was analyzed with a FACSCalibur flow cytometer (Becton Dickinson). Linear amplification of the forward and side scatter (FSC/SSC) signals, as well as logarithmic amplification of eGFP and PI emission in green and red fluorescence were obtained. […]
# [4] = tested on: Hsp70; test: Phase I trial, Hsp70 in plasma before and after treatment (Example 11); type: in vivo, human
# Procedure: (§1) Plasma Hsp70 was measured by a sandwich ELISA kit (Stressgen Bioreagents Victoria, British Columbia, CANADA) according to a modified protocol in house. In brief, Hsp70 in plasma specimens and serial concentrations of Hsp70 standard were captured onto 96-well plate on which anti-Hsp70 antibody was coated. Then captured Hsp70 was detected with a biotinylated anti-Hsp70 antibody followed by incubation with europium-conjugated streptavidin. After each incubation unbound materials were removed by washing. Finally, antibody-Hsp70 complex was measured by time resolved fluorometry of europium. Concentration of Hsp70 was calculated from a standard curve.
# [5] = tested on: Hsp70; test: Plasma Hsp70 levels by ELISA in non-tumor-bearing mice (Example 3); type: in vivo; details: normal (non-tumor bearing) mice; 25 mg/kg intravenously 3 times a week; compared to vehicle
# Procedure: as §1, with “Non-tumor-bearing mice were with either vehicle alone or compound (1). The vehicle employed was 10% DMSO, 18% Cremophor RH40. […] Plasma samples were prepared from tail bleed. Plasma Hsp70 levels were determined by Enzyme-Linked Immunosorbent Assay (ELISA). Plasma” for “Plasma”
# [6] = Tissue distribution in SW female mice, intravenous (Example 1); type: in vivo; details: mouse
# Procedure: Plasma samples were prepared by combining 50 μL plasma+50 μL 1% dithiothreitol (DTT)+150 μL CH3CN (0.1% HCOOH), centrifuged at 10,000 rpm×5 min; 150 μL supernatant+90 μL H2O. Tissue samples were prepared by homogenizing a weighed tissue sample in phosphor-buffered saline (PBS, ×1)+1% DTT (×1)+CH3CN (0.1% HCOOH) (×3)), centrifuged at 10,000 rpm×5 min; 150 μL supernatant+90 μL H2O. […] The running time was 15 min.
# [7] = Phase I trial, plasma pharmacokinetics by LC/MS (Example 11); details: co-administered with Compound (1) 44-[…]^2
# Procedure: Pharmacokinetic (PK) studies were performed during cycle 1 using liquid chromatography/mass spectrometry (LC/MS) to measure both compounds in plasma. Heat shock protein 70 (Hsp70) was measured in plasma before and after treatment.
# [8] = in vivo
structure (smiles),measurement,setting,value
CN(NC(=O)CC(=O)NN(C)C(=S)c1ccccc1)C(=S)c1ccccc1 [Compound (1)],half-life,"[1]; female, SW, mouse, in vivo, po, 100 mg/kg",138 min
same,"adverse effects (AEs), usually Grade 1-2","[2]; Phase 1, 16 patients, with carboplatin and paclitaxel","arthralgia and myalgia, peripheral neuropathy, rash, nausea, and vomiting, fatigue, alopecia, edema, dehydration, constipation, and decreased blood counts"
same,tolerability of the carboplatin:paclitaxel:Compound (1) combination,[2]; at the dose levels studied,well tolerated
same,patients with evaluable samples showing increased NK cell activity,"[3]; assayed 7 days after the second dose, with carboplatin and paclitaxel",Seven of the 8
same,% tumor cell lysis post-dose,"[3]; per subject, Effector/Target 80:1, dose cells empty (subjects 9-11)",3.8% and 45.98%
same,"Hsp70 concentrations, change","[4]; 175 mg/m2 Compound (1) + paclitaxel 175 mg/m2, two patients",more than doubled
same,percent increase in Hsp70 concentrations,"[4]; 263 mg/m2 Compound (1) + paclitaxel 175 mg/m2, a third patient",more than 250%
same,"Hsp70 concentrations, change","[4]; 263 mg/m2 Compound (1) + paclitaxel 175 mg/m2, two patients",roughly doubled
same,percent increase in Hsp70 concentrations,"[4]; 350 mg/m2 Compound (1) + paclitaxel 175 mg/m2, all patients",more than 200%
same,percent increase in Hsp70 concentrations,"[4]; 350 mg/m2 Compound (1) + paclitaxel 175 mg/m2, two patients",≤ 500%
same,percent increase in Hsp70 concentrations,"[4]; 438 mg/m2 Compound (1) + paclitaxel 175 mg/m2, another patient",≤ 500%
same,"Hsp70 concentrations, change","[4]; 438 mg/m2 Compound (1) + paclitaxel 175 mg/m2, two patients",roughly doubled
same,"induction of Hsp70 protein in plasma, dose dependence",[4]; combined with paclitaxel,dose dependent
same,plasma levels of Hsp70,[5],increase
COc1ccc(OC)c(C(=S)N(C)NC(=O)C(C)C(=O)NN(C)C(=S)c2cc(OC)ccc2OC)c1 [Compound (9)],per os AUC as % of the intravenous value at 4 hours,"[1]; per os 100 mg/kg formulation B vs intravenous 25 mg/kg formulation A, AUC 0-4 hours",about 30%
CN(NC(=O)CC(=O)NN(C)C(=S)C1CC1)C(=S)C1CC1 [Compound (18)],Kp at 30 min,"[6]; brain, intravenous, 25 mg/kg, read-out: brain concentration as % of plasma concentration",0.19
same,Kp at 30 min,"[6]; brain, iv, first experiment, 25 mg/kg intravenously, 30 min after injection, read-out: brain concentration as % of the plasma concentration",~0.07
same,concentration at 30 min,"[6]; brain, iv, first experiment, 25 mg/kg intravenously, 30 min after injection, read-out: concentration in brain",~2 µM
same,concentration at 30 min,"[6]; kidney, iv, first experiment, 25 mg/kg intravenously, 30 min after injection, read-out: concentration in kidney",50 µM
same,concentration at 30 min,"[6]; liver, iv, first experiment, 25 mg/kg intravenously, 30 min after injection, read-out: concentration in liver",33 µM
same,concentration at 30 min,"[6]; spleen, iv, first experiment, 25 mg/kg intravenously, 30 min after injection, read-out: concentration in spleen",25 µM
"CC(=O)O[C@H]1C(=O)[C@@]2(C)[C@H]([C@H](OC(=O)c3ccccc3)[C@]3(O)C[C@H](OC(=O)[C@H](O)[C@@H](NC(=O)c4ccccc4)c4ccccc4)C(C)=C1C3(C)C)[C@]1(OC(C)=O)CO[C@@H]1C[C@@H]2O [Paclitaxel, paclitaxel]","paclitaxel Vss, dependence on the Compound (1) dose",[7],increase
same,"paclitaxel clearance, dependence on the Compound (1) dose",[7],significant trend toward decreasing clearance
same,"paclitaxel terminal phase half-life, dependence on the Compound (1) dose",[7],without affecting
same,dose limiting toxicities,[8],"neutropenia, arthralgia, and febrile neutropenia with mucositis"
